Source: US8956997B2, “Plant conditioner composition and method” (priority 2010, dated 2015)

Tests used:
thrips = test: Thrips kill test on isolated thrips and treated plants; type: in vivo
Description: Obvious testing by using a loop and magnifier concluded that the Dragon Juice 50 kills 100% of the spider mites, even after 6 weeks in the refrigerator. […] The Inventor tested more H202 and the tea tree oil combinations.

plants = test: Plant size, produce and plant damage in indoor and outdoor gardens; type: in vivo; conditions: more H202 and tea tree oil combinations added to the mix
Method: This product was tested in the Inventor's garden. At the time the garden was infested with spider mites and thrips. There were cob webs and major plant damage. The option was to destroy the garden. It seemed hopeless. […] Originally the solution was too strong, and it severely damaged the plants and killed every living thing on the plants as well as the plants. After going back and testing each of the ingredients separately (a few weeks at a time over the course of five years) the Inventor concluded how much of each ingredient to use per gallon. After that, the Inventor combined the sugars and started adding each ingredient while testing shelf life and refrigerator life of Dragon Juice 50. […] The concentrate variations have been tested in indoor and outdoor gardens. The results have been fantastic as all of the products produced have been getting outstanding customer approval for quality, and flavor. […] It also helps to keep the plant healthier from the stress of the concentrated oils. The salt (see below) is another last minute ingredient included after studying and talking with a state health inspector. The Inventor realized that the salt breaks down selenium in the water so the plant can use the nutrients and convert the use of sugars more effectively. As the H202 takes away microorganisms, the vitamins, and carbohydrates rebuild a healthy environment for the plants new growth. […]

OO [H202, hydrogen peroxide]
effect on thrips (thrips): killed the thrips
plant damage (leaves) (plants): started burning the leaves
